# Measured values published in US9572831B2, “Composition and method for sulfated non-anticoagulant low molecular weight heparins in cancer and tumor metastasis” (priority 2013, dated 2017).
# Like-named read-outs stand apart in the source and are kept apart here.
# How the values were obtained:
# [1] = system: 253JBV bladder cells; assay: Western blots of bladder cancer cell proteins; type: cell-based; details: 48 hour; Cisplatin 10 ug/ml, S-NACH 20 ug/ml, LMWH 20 ug/ml
# Procedure: 253JBV bladder cells were cultured and treated [Control (PBS), Cisplatin (10 ug/ml), S-NACH (20 ug/ml), LMWH (20 ug/ml)] for 48 hour. Total proteins were collected to quantitate expression of the proteins using western blots.
# [2] = system: MCF7-WT cells; assay: Nanoparticle Dox formulations in mice with MCF7-WT tumors; type: in vivo; details: treatment begun 10 days after inoculation; n=8
# From the text: Mice were inoculated with 1.4×10^7 MCF7-WT cells. […] Tumor volume measurements were obtained over time course shown. Values are mean tumor volume in mm^3±SEM, n=8 mice/group.
# [3] = system: MCF7-R cells; assay: Nanoparticle Dox formulations in mice with MCF7-R tumors; type: in vivo
# Procedure: FIG. 20 depicts anti-tumor efficacy of nanoparticle formulations encapsulating Doxorubicin with and without LMWHs vs. un-encapsulated Doxorubicin in mice with MCF7-R Tumors, in accordance with embodiments of the present invention. […] Treatments, as shown in legend, were begun after tumors had reached a size of 50-100 mm^3. Tumor volumes were measured daily. Animals were euthanized when Controls reached a size of 2000 mm^3 (as per IACUC approval).
# In vivo data using in mice xenograft (MCF-7R) are shown in Table 5 (amounts of doxorubicin and NACH injected in all cases were 0.625 mg/kg and 2.5 mg/kg body weight).
# [4] = system: MPanc96-luc cells; type: in vivo, athymic nude mice; details: S-NACH 20 mg/kg s.c. daily, gemcitabine 100 mg/kg i.p. twice a week, 28 days
# Procedure: MPanc96-luc cells were harvested as described above and were orthotopically implanted (2×10^5 cells in 50 μl PBS per mouse) in the pancreas of anesthetized athymic nude mice. Just before treatment initiation, animals (n=10 per group) were randomized by tumor mass detected by an in vivo imaging system (IVIS, described below). Heparin derivatives S-NACH at 20 mg/kg and tinzaparin at 5 mg/kg were administered subcutaneously daily. Gemcitabine at 100 mg/kg was injected intraperitoneally twice a week alone or in combination with either S-NACH or tinzaparin. All mice used for treatment response evaluations were euthanized after 28 days. See Table 2 for the protocol of the study. Imaging was performed once per week to monitor tumor growth. Mice bearing MPanc96-luc tumors were anaesthetized using isoflurane, injected subcutaneously with 50 μl D-luciferin (30 mg/ml), then imaged. Photographic and luminescence images were taken at constant exposure time. Xenogen IVIS® Living Image software version 3.2 was used to quantify non-saturated bioluminescence in regions of interest. Light emission between 5.5×10^6-7.0×10^10 photons was assumed to be indicative of viable luciferase-labeled tumor cells while emissions below this range were considered as background. Bioluminescence was quantified as photons/second for each region of interest. In vivo tumor kinetic growth and metastasis were monitored by signal intensity. Ex vivo imaging was performed to confirm the signal intensity in the tumors after the termination. All specimens were analyzed by histology for routine analysis. Specimens were fixed in 10% buffered formalin, processed routinely, and embedded in paraffin. Then, after fixation, the specimens were transferred into the embedding chambers to hold the specimens in position until the paraffin became solid to prevent further rotation. Four μm serial sections were cut, and then stained using haematoxylin and eosin. Sections were evaluated for various pathologic parameters using a light microscope (Leica, Buffalo Grove, Ill.).
# [5] = Whole blood clotting times by Sonoclot Analyzer and TEG; type: in vivo; details: intravenous, 10 mg/kg, mice, n=5
# Procedure: Two heparins, commercial formulation Enoxaparin and non-anticoagulant heparin (NACH) including S-NACH or S-SNACH were evaluated for their effects on coagulation. Whole blood clotting times were measured by the Sonoclot Analyzer (left panel) and by TEG (right panel); n=5.
# [6] = system: intrinsic pathway of the coagulation cascade; assay: APTT assay; type: biochemical
# Procedure: Activated Partial Thromboplastin Time (aPTT) is sensitive to all factors in the intrinsic pathway of the coagulation cascade and the presence of heparin. The aPTT was measured for each of the 8 USP heparins, using the ACL 8000 Beckman Coulter coagulation analyzer and the Trinity Biotech Trini CLOT Automated aPTT assay kit (Berkeley Heights, N.J.). Additionally, aPTT was measured for heparin, LMWH, and S-NACH.
# [7] = Mouse deaths over all experiments; type: in vivo, mice
# Procedure: In the second experiment, a higher concentration of S-SNACH (20 mg/kg) was used. […] The percentile death of mice was high in the LMWH group and reached 6 animals (50%) at the end of the experiment due to internal bleeding after two invasive surgeries. At the end of all experiments, the percentile death among all groups was calculated and compared.
# The average dose of LMWH for enoxaparin in humans is 1.0-1.5 mg/kg and relatively higher in mice. In the experiment performed in the present invention, 5-10 mg/kg was used for LMWH (tinzaparin) and as high as 20-100 mg/kg was used for SNACH.
compound,measurement,setting,value
N.N.[Cl][Pt][Cl] [Cisplatin],E-cadherin protein expression,[1],increased
same,MMP-2 protein expression,[1],reduced
COc1cccc2c1C(=O)c1c(O)c3c(c(O)c1C2=O)C[C@@](O)(C(=O)CO)C[C@@H]3O[C@H]1C[C@H](N)[C@H](O)[C@H](C)O1 [Doxorubicin],tumor growth (tumor volume),[2],effectively inhibited
same,tumor volume over time,[3]; FIG. 20 Panel A,same pattern of tumor growth as untreated controls
same,Tumor Mass,"[3]; doxorubicin 0.625 mg/kg, NACH 2.5 mg/kg body weight, mean",1.3 g
Nc1ccn([C@@H]2O[C@H](CO)[C@@H](O)C2(F)F)c(=O)n1 [Gemcitabine],tumor luciferin signal intensity,[4],reduced
same,tumor weights,[4],reduced
same,tumor luciferin signal intensity,[4]; listed as GEM,suppression of tumor signal intensity
Enoxaparin,"clot times (whole blood clotting time, time to clot initiation)",[5],significantly prolonged
Heparin,aPTT,[6],increased aPTT in a dose-dependent manner
same,rate of death among the mice,[7],higher mortality
